This note sets out measurements from US20090232867A1, “Modified conductive surfaces having active substances attached thereto” (Elutex Ltd., priority 2004, published 2009).

Series [1] can be described thus: Paclitaxel release from coated stent or plate into phosphate buffer pH 7.4 with 0.3% SDS, HPLC. It counts as physicochemical. To be noted: stents/plates coated with polypyrrole derivatives. As for the experimental part:
The release characteristic of the stent or plate was determined by placing drug-loaded device into buffer phosphate solution, pH 7.4, which contained 0.3% SDS, to increase the solubility of paclitaxel, and the daily release was determined by HPLC.

Series [2] in a line: Paclitaxel release from pyrrole-functionalized PLA nanoparticles in 0.1N phosphate buffer. To be noted: immersed in 0.1N phosphate buffer solution. The class given is physicochemical. As for the experimental part:
In a representative example, nanoparticles were prepared by dispersing a chloroform solution of a pyrrole polymer prepared as described hereinabove (0.1 gram), polylactic acid (0.4 grams, Mn=3,000) and paclitaxel (0.15 gram) in de-ionized water at room temperature with constant stirring.

Take `CC(=O)O[C@H]1C(=O)[C@@]2(C)[C@H]([C@H](OC(=O)c3ccccc3)[C@]3(O)C[C@H](OC(=O)[C@H](O)[C@@H](NC(=O)c4ccccc4)c4ccccc4)C(C)=C1C3(C)C)[C@]1(OC(C)=O)CO[C@@H]1C[C@@H]2O` [paclitaxel]: in series [1] (after 3 days), the “absorbed drug released into the buffer medium” value is listed as “about 50%”. The “duration of slow release of the remaining drug” value in series [1] is “over 3 weeks”. Moreover, the “release of paclitaxel from nanoparticles” value in series [2] is “released constantly from these particles during two weeks”.
